Tests used:
[1] = (§1) Hepatic clearance in human hepatocytes in absence of fetal calf serum
Hepatocyte = assay: as §1; conditions: hepatocytes

## Cn1c(=O)c2c(ncn2C)n(C)c1=O [CAFFEINE]
[1]; human hepatocytes
  CLhep predicted: 1.4 mL/min/kg
Hepatocyte
  logCL: 0.1461

## CCN(CC)CC(=O)Nc1c(C)cccc1C [LIDOCAINE]
Hepatocyte
  logCL: 1.1761

## CCOc1ccc(NC(C)=O)cc1 [PHENACETIN]
Hepatocyte
  logCL: 1.2833

## CN(C)CCCN1c2ccccc2Sc2ccc(Cl)cc21 [CHLORPROMAZINE]
Hepatocyte
  CL: 8.6 mL/min/kg
  logCL: 0.9345

## C[C@H]1C[C@@H]2[C@H]([C@@H](O)C[C@@]3(C)[C@H]2CC[C@]3(O)C(=O)CO)[C@@]2(C)C=CC(=O)C=C12 [METHYLPREDNISOLONE]
[1]; human hepatocytes
  CLhep predicted: 7.5 mL/min/kg
Hepatocyte
  logCL: 0.8751

## CCc1cccc2c3c([nH]c12)C(CC)(CC(=O)O)OCC3 (stereo unspecified) [ETODOLAC]
[1]; human hepatocytes
  CLhep predicted: 1.31 mL/min/kg
Hepatocyte
  logCL: 0.1173

## CN1C2CCCC1CC(NC(=O)c1nn(C)c3ccccc13)C2 (stereo unspecified) [GRANISETRON]
[1]; human hepatocytes
  CLhep predicted: 11 mL/min/kg
Hepatocyte
  logCL: 1.0414

## Cn1c(=O)c2[nH]cnc2n(C)c1=O.O [THEOPHYLLINE]
[1]; human hepatocytes
  CLhep predicted: 0.65 mL/min/kg
Hepatocyte
  logCL: -0.1871

## Cc1cn([C@H]2C[C@H](N=[N+]=[N-])[C@@H](CO)O2)c(=O)[nH]c1=O [ZIDOVUDINE]
[1]; human hepatocytes
  CLhep predicted: 12.4 mL/min/kg
Hepatocyte
  logCL: 1.0934

## COc1ccc([C@@H]2Sc3ccccc3N(CCN(C)C)C(=O)[C@@H]2OC(C)=O)cc1 [DILTIAZEM]
[1]; human hepatocytes
  CLhep predicted: 12.8 mL/min/kg
Hepatocyte
  logCL: 1.1072

## O=C1CC2(CCCC2)CC(=O)N1CCCCN1CCN(c2ncccn2)CC1 [BUSPIRONE]
[1]; human hepatocytes
  CLhep predicted: 19.2 mL/min/kg
Hepatocyte
  logCL: 1.2833

## O=C(O)c1cc(-c2ccc(F)cc2F)ccc1O [DIFLUNISAL]
[1]; hepatocytes
  CLhep predicted: 0.18 mL/min/kg
Hepatocyte
  logCL: -0.7447

## CCCc1nn(C)c2c(=O)[nH]c(-c3cc(S(=O)(=O)N4CCN(C)CC4)ccc3OCC)nc12
Hepatocyte
  logCL: 0.7782

## O=C1Nc2ccc(Cl)cc2C(c2ccccc2Cl)=NC1O (stereo unspecified) [LORAZEPAM]
[1]; human hepatocytes
  CLhep predicted: 1.1 mL/min/kg
Hepatocyte
  logCL: 0.0414

## CC(C)(C)NC[C@H](O)COc1nsnc1N1CCOCC1 [TIMOLOL]
[1]; hepatocytes
  CLhep predicted: 9.17 mL/min/kg
Hepatocyte
  logCL: 0.9624

## O=C(O)Cc1ccccc1Nc1c(Cl)cccc1Cl [DICLOFENAC]
[1]; hepatocytes
  CLhep predicted: 7.33 mL/min/kg
Hepatocyte
  logCL: 0.8651

## CC(C)c1nc(CN(C)C(=O)N[C@H](C(=O)N[C@@H](Cc2ccccc2)C[C@H](O)[C@H](Cc2ccccc2)NC(=O)OCc2cncs2)C(C)C)cs1 [RITONAVIR]
[1]; human hepatocytes
  CLhep predicted: 1.2 mL/min/kg
Hepatocyte
  logCL: 0.0792

## Cc1nccn1CC1CCc2c(c3ccccc3n2C)C1=O (stereo unspecified) [ONDANSETRON]
[1]; human hepatocytes
  CLhep predicted: 5.9 mL/min/kg
Hepatocyte
  logCL: 0.7709

## CC(=O)CC(c1ccccc1)c1c(O)c2ccccc2oc1=O (stereo unspecified) [WARFARIN]
[1]; human hepatocytes
  CLhep predicted: 0.16 mL/min/kg
Hepatocyte
  logCL: -0.7959

## C=CCN1CC[C@]23c4c5ccc(O)c4O[C@H]2C(=O)CC[C@@]3(O)[C@H]1C5 [NALOXONE]
[1]; human hepatocytes
  CLhep predicted: 19.5 mL/min/kg
Hepatocyte
  logCL: 1.29

## Cc1ccc(C)c(OCCCC(C)(C)C(=O)O)c1 [GEMFIBROZIL]
[1]; hepatocytes
  CLhep predicted: 3.09 mL/min/kg
Hepatocyte
  logCL: 0.49

## COCCc1ccc(OCC(O)CNC(C)C)cc1 (stereo unspecified) [METOPROLOL]
[1]; human hepatocytes
  CLhep predicted: 12.2 mL/min/kg
Hepatocyte
  logCL: 1.0846

## Cc1c(C)c2c(c(C)c1O)CCC(C)(COc1ccc(CC3SC(=O)NC3=O)cc1)O2 (stereo unspecified) [TROGLITAZONE]
[1]; human hepatocytes
  CLhep predicted: 9 mL/min/kg
Hepatocyte
  logCL: 0.9542

## Cc1ncc2n1-c1ccc(Cl)cc1C(c1ccccc1F)=NC2 [MIDAZOLAM]
[1]; hepatocytes
  CLhep predicted: 6.6 mL/min/kg
Hepatocyte
  logCL: 0.8195

## COc1ccc2c(c1)c(CC(=O)O)c(C)n2C(=O)c1ccc(Cl)cc1 [INDOMETHACIN]
[1]; human hepatocytes
  CLhep predicted: 2.24 mL/min/kg
Hepatocyte
  logCL: 0.3502

## CN1C(=O)CN=C(c2ccccc2)c2cc(Cl)ccc21 [DIAZEPAM]
Hepatocyte
  logCL: -0.3665

## CC(C)(O)c1ccccc1CC[C@@H](SCC1(CC(=O)O)CC1)c1cccc(/C=C/c2ccc3ccc(Cl)cc3n2)c1 [MONTELUKAST]
[1]; human hepatocytes
  CLhep predicted: 1.27 mL/min/kg
Hepatocyte
  logCL: 0.1038

## CCCCC1=NC2(CCCC2)C(=O)N1Cc1ccc(-c2ccccc2-c2nnn[nH]2)cc1 [IRBESARTAN]
Hepatocyte
  CL: 3.85 mL/min/kg
  logCL: 0.5855

## COc1ccccc1OCCNCC(O)COc1cccc2[nH]c3ccccc3c12 (stereo unspecified) [CARVEDILOL]
[1]; hepatocytes
  CLhep predicted: 8.7 mL/min/kg
Hepatocyte
  logCL: 0.9395

## CCCCNC(=O)NS(=O)(=O)c1ccc(C)cc1 [TOLBUTAMIDE]
[1]; hepatocytes
  CLhep predicted: 0.3 mL/min/kg
Hepatocyte
  logCL: -0.5229

## C[C@]12C=CC(=O)C=C1CC[C@@H]1[C@@H]2[C@@H](O)C[C@@]2(C)[C@H]1CC[C@]2(O)C(=O)CO [PREDNISOLONE]
[1]; human hepatocytes
  CLhep predicted: 8.7 mL/min/kg
Hepatocyte
  logCL: 0.9395

## CC(C(=O)O)c1cccc(Oc2ccccc2)c1 (stereo unspecified) [FENOPROFEN]
Hepatocyte
  logCL: 0.2279

## CN1C(C(=O)Nc2ccccn2)=C(O)c2sccc2S1(=O)=O [TENOXICAM]
[1]; hepatocytes
  CLhep predicted: 0.073 mL/min/kg
Hepatocyte
  logCL: -1.1367

Reference: ChEMBL document CHEMBL1137707, “First-principle, structure-based prediction of hepatic metabolic clearance values in human” (Eur J Med Chem, 2009)
